For orientation: CC50 means the concentration at which the toxic effect on the cells reaches its halfway point. A word on the EC50: it is the concentration that produces a half-maximal response.

Where “and” joins values, the source holds several entries; their conditions need not be identical. Equal entries are not always repeated. Where two headings read alike, the source gives them in different places. Where a SMILES comes first, the peptide text is derived from it. [ ]: non-standard residue; d: D form. The star is where a group is joined. NMeF = CN[C@@H](Cc1ccccc1)C(=O)O; NMeV = CN[C@H](C(=O)O)C(C)C; Hept6ynoyl = C#CCCCCC(=O)*; NMeA = CN[C@@H](C)C(=O)O; NH(CH2)6NH2 = NCCCCCCN*

Data set [1] in a line: LM-1 macrophage cytotoxicity (Alamar Blue). The format is cell-based, murine. Conditions: mouse. The method, then: The host cytotoxicity was evaluated by monitoring the survival rates of murine LM-1 macrophage at different concentrations of peptides 15–37 ([…]) over 24 h. […] Exceptionally, MeAla peptide amide 21 was 3.2- to 8-fold less toxic than the other peptide analogs.
The LM1- macrophages were grown in DMEM supplemented with 10% heat inactivated FBS. Cells at the concentration of 100,000 cells/mL were cultivated for 24 h in a 96-well plate (37 °C, 5% CO2). The culture medium was removed and fresh medium containing the appropriate drug and concentration was added to the cells, which were incubated for 24 h (37 °C, 5% CO2). Seven different concentrations were tested ([…]) as well as controls (without drugs). After 24 h, the culture medium was removed and replaced for fresh medium containing 10% Alamar Blue (Thermo Fisher Scientific, Waltham, MA, USA) and incubated for 2 h (37 °C, 5% CO2). Readings at 570 and 600 nm (Asys UVM340 Plate reader, Biochrom, Cambridge, UK) were taken and analyzed according to the manufacturer protocol. Survival rates at different drug concentrations and CC50 values were calculated using the Excel software.

The subject of data set [2] is L. infantum MF200.5 (resistant to miltefosine) promastigotes. The format is cell-based, Leishmania infantum. Conditions: strain resistant to 200 µM miltefosine; promastigotes, 72 h, 25 °C; 95% CI in brackets (n = 3); read-out: Ldi MF-Res EC50. The protocol: (§1) The biological activity of peptides 15–37 was assessed against the L. infantum wild-type stain (WT), as well as mutants resistant to the common anti-leishmanial agents, such as antimony (Sb^III), amphotericin B (AmB) and miltefosine (MF): Sb2000.1, AmB1000.1 and MF200.5. Activity against Leishmania promastigotes was determined by monitoring the replication of parasites after 72 h of incubation at 25 °C in the presence of increasing concentrations of the different peptides […] and reported as EC50 values (Table 2). […] The greatest potencies were observed using analogs against the amphotericin B resistant strain (e.g., AmB1000.1).
(§2) The L. infantum (MHOM/MA/67/ITMAP-263) wild-type stain (WT), as well as the resistant mutants Sb2000.1, AmB1000.1 and MF200.5 [53, 54, 55, 56, 57, 58], resistant to antimony (Sb^III), amphotericin B (AmB) and miltefosine (MF), respectively, were grown in M199 medium at 25 °C supplemented with 10% fetal bovine serum, 5 μg/mL of haemin at pH 7.0 and 2000 μM Sb (Potassium antimonyl tartrate, Sigma-Aldrich), 200 μM of MF (Miltefosine, Cayman Chem., Ann Arbor, MI, USA) or 1 μM AmB (Amphotericin B solution, Sigma, Oakville, ON, Canada). Antileishmanial values were determined in Leishmania promastigotes by monitoring the replication of parasites after 72 h of incubation at 25 °C in the presence of increasing concentrations of the different peptides by measuring A600 using a Cytation 5 machine (BioTek, Winooski, VT, USA). EC50 values were calculated based on dose–response curves analyzed by non-linear regression with GraphPad Prism 8.4.3 software (GraphPad Software, La Jolla, CA, USA). An average of at least three independent biological replicates from independent cultures was performed for each determination.

In data set [3] the test system is L. infantum (MHOM/MA/67/ITMAP-263) wild-type strain (WT) promastigotes. It counts as cell-based, Leishmania infantum. The note with it: for EC50: 72 h; for Selectivity Index: SI = CC50 (LM-1 macrophage)/EC50 Ldi WT. The protocol:
as §1, §2

Data set [4] relates to L. infantum Sb2000.1 (resistant to antimony) promastigotes. It counts as cell-based, Leishmania infantum. The note with it: strain resistant to 2 mM antimonials, 72 h, 25 °C, 95% CI in brackets (n = 3), read-out: Ldi Sb-Res EC50. The method, then:
as §1, §2

Data set [5] deals with L. infantum AmB1000.1 (resistant to amphotericin B) promastigotes. It counts as cell-based, Leishmania infantum. The note with it: for EC50: strain resistant to 1 µM amphotericin B, promastigotes, 72 h, 25 °C, 95% CI in brackets (n = 3), read-out: Ldi AmB-Res EC50. The method, then:
as §1, §2

Setting [6] is: MHOM/MA/67/ITMAP-263) wild-type strain (WT) promastigotes.
Setting [7] is: promastigotes, 25 °C, 95% confidence interval in brackets (n = 3), read-out: Ldi WT EC50.

In the case of `C#CCCCCC(=O)N[C@H](C(=O)N[C@H](C(=O)N[C@H](C(=O)N[C@@H](C)C(=O)N[C@@H](Cc1ccccc1)C(=O)O)C(C)C)C(C)C)C(C)C` [peptide 15, HCC(CH2)4CO-Val-Val-Val-Ala-Phe-OH] (Hept6ynoyl-VVVAF-OH), the 50% cytotoxic concentration (CC50) at 24 h in data set [1] amounted to 316 µM. For the same compound, the EC50 in data set [2] came out at 50.8 µM; in data set [3] (setting [6]), 44.7 µM; in data set [4] it was 60.3 µM; in data set [5], 46.4 µM. For the same compound, the “Selectivity Index” value in data set [3] turned out to be 7.0.

In data set [1], `C#CCCCCC(=O)N[C@H](C(=O)N[C@H](C(=O)N[C@H](C(=O)N(C)[C@@H](C)C(=O)N[C@@H](Cc1ccccc1)C(=O)NCCCCCCN)C(C)C)C(C)C)C(C)C` [peptide 21, HCC(CH2)4CO-Val-Val-Val-Ala(Me)-Phe-NH(CH2)6NH2] (Hept6ynoyl-VVV[NMeA]F-{NH(CH2)6NH2}) came in with a CC50 at 24 h of 1440 µM. Moreover, the half-maximal effective concentration (EC50) was 63.5 µM in data set [2], 75.8 µM in data set [3] (setting [6]), 79.8 µM in data set [4] and 65.7 µM in data set [5]. Besides, in data set [3], the “Selectivity Index” value is 19.1 and 18.9.

For `C#CCCCCC(=O)N[C@H](C(=O)N(C)[C@H](C(=O)N[C@H](C(=O)N[C@@H](C)C(=O)N[C@@H](Cc1ccccc1)C(=O)NCCCCCCN)C(C)C)C(C)C)C(C)C` [compound 19, HCC(CH2)4CO-Val-Val(Me)-Val-Ala-Phe-NH(CH2)6NH2] (Hept6ynoyl-V[NMeV]VAF-{NH(CH2)6NH2}), half-maximal cytotoxicity in data set [1] (CC50 at 24 h) was put at 316 µM. In addition, the half-maximal effective concentration (EC50) in data set [2] stood at 89.2 µM; in data set [3] (setting [6]) it was 81.2 µM; in data set [4], 78.9 µM; in data set [5], 70.3 µM. Also, the “Selectivity Index” value in data set [3] came out at 3.9.

Regarding `C#CCCCCC(=O)N(C)[C@H]1CCN([C@H](C(=O)N(C)[C@H](C(=O)N(C)[C@@H](C)C(=O)N(C)[C@@H](Cc2ccccc2)C(=O)NCCCCCCN)C(C)C)C(C)C)C1=O` [peptide 33, HCC(CH2)4CO-Agl(Me)-Val-Val(Me)-Ala(Me)-Phe(Me)-NH(CH2)6NH2], in data set [1], the 50% cytotoxic concentration (CC50) at 24 h was found to be 407 µM. For the same compound, the EC50 in data set [2] is 191 µM; in data set [3] (setting [6]), 119 µM; in data set [4] it was 140 µM; in data set [5], 184 µM. Further, the “Selectivity Index” value in data set [3] amounted to 3.4.

Consider `C#CCCCCC(=O)N[C@H](C(=O)N[C@H](C(=O)N[C@H](C(=O)N[C@@H](C)C(=O)N(C)[C@@H](Cc1ccccc1)C(=O)NCCCCCCN)C(C)C)C(C)C)C(C)C` [peptide 22, HCC(CH2)4CO-Val-Val-Val-Ala-Phe(Me)-NH(CH2)6NH2] (Hept6ynoyl-VVVA[NMeF]-{NH(CH2)6NH2}), for which the CC50 at 24 h in data set [1] is 446 µM. The EC50 was 27.8 µM in data set [2], 29 µM in data set [3] (setting [6]), 25 µM in data set [4] and 25.9 µM in data set [5]. Moreover, the “Selectivity Index” value in data set [3] amounted to 15.3.

In the case of `C#CCCCCC(=O)N(C)[C@H](C(=O)N(C)[C@H](C(=O)N(C)[C@H](C(=O)N(C)[C@@H](C)C(=O)N(C)[C@@H](Cc1ccccc1)C(=O)O)C(C)C)C(C)C)C(C)C` [peptide 12, HCC(CH2)4CO-Val(Me)-Val(Me)-Val(Me)-Ala(Me)-Phe(Me)-OH] (Hept6ynoyl-[NMeV][NMeV][NMeV][NMeA][NMeF]-OH), in data set [1] (LM-1 macrophages, 24 h, Alamar Blue, read-out: CC50), the 50% cytotoxic concentration (CC50) at 24 h is 281 µM. Moreover, the concentration for a half-maximal effect (EC50) in data set [2] turned out to be 75.6 µM; in data set [3] (setting [7]), 68.3 µM; in data set [4] it was 70.7 µM; in data set [5], 79.6 µM. Also, in data set [3], the “Selectivity Index” value is recorded as 4.1.

As to `C#CCCCCC(=O)N(C)[C@H](C(=O)N[C@H](C(=O)N[C@H](C(=O)N[C@@H](C)C(=O)N[C@@H](Cc1ccccc1)C(=O)NCCCCCCN)C(C)C)C(C)C)C(C)C` [peptide 18, HCC(CH2)4CO-Val(Me)-Val-Val-Ala-Phe-NH(CH2)6NH2] (Hept6ynoyl-[NMeV]VVAF-{NH(CH2)6NH2}), in data set [1], half-maximal cytotoxicity (CC50 at 24 h) was put at 177 µM. Further, the concentration giving a half-maximal response (EC50) in data set [2] worked out at 12.1 µM; in data set [3] (setting [6]) it was 36.7 µM; in data set [4], 39.6 µM; in data set [5] it was 5.03 µM. Moreover, the “Selectivity Index” value in data set [3] is listed as 4.8. In data set [5] (macrophage toxicity compared with potency against the AmB resistant Leishmania strain), this compound registered a therapeutic index of 36.

In data set [1], `C#CCCCCC(=O)Nn1c(C)cn([C@H](C(=O)N[C@H](C(=O)N[C@@H](C)C(=O)N[C@@H](Cc2ccccc2)C(=O)O)C(C)C)C(C)C)c1=O` [peptide 36, HCC(CH2)4CO-(5-Me)Nai-Val-Val-Ala-Phe-OH] displayed a cytotoxic concentration (CC50) at 24 h of 436 µM. Further, the EC50 in data set [2], in data set [3] (setting [7]), in data set [4] and in data set [5] was above 300 µM each time.

`C#CCCCCC(=O)N[C@H](C(=O)N[C@H](C(=O)N[C@H]1CCN([C@@H](C)C(=O)N[C@@H](Cc2ccccc2)C(=O)O)C1=O)C(C)C)C(C)C` [peptide 25, HCC(CH2)4CO-Val-Val-Agl-Ala-Phe-OH]: the CC50 at 24 h in data set [1] amounted to 416 µM. Also, the EC50 in data set [2], in data set [3] (setting [7]), in data set [4] and in data set [5] was above 300 µM each time.

As for `C#CCCCCC(=O)N[C@H](C(=O)N[C@H](C(=O)N(C)[C@H](C(=O)N[C@@H](C)C(=O)N[C@@H](Cc1ccccc1)C(=O)NCCCCCCN)C(C)C)C(C)C)C(C)C` [peptide 20, HCC(CH2)4CO-Val-Val-Val(Me)-Ala-Phe-NH(CH2)6NH2] (Hept6ynoyl-VV[NMeV]AF-{NH(CH2)6NH2}), in data set [1], the midpoint of cytotoxicity, the CC50 at 24 h, lay at 281 µM. Also, the EC50 in data set [2] came out at 60.6 µM; in data set [3] (setting [6]), 53.9 µM; in data set [4], 40.2 µM; in data set [5] it was 57.2 µM. Further, the “Selectivity Index” value in data set [3] turned out to be 5.2.

On to `C#CCCCCC(=O)N(C)[C@H]1CCN([C@H](C(=O)N(C)[C@H](C(=O)N(C)[C@@H](C)C(=O)N(C)[C@@H](Cc2ccccc2)C(=O)O)C(C)C)C(C)C)C1=O` [peptide 26, HCC(CH2)4CO-Agl(Me)-Val-Val(Me)-Ala-Phe(Me)-OH], for which, in data set [1], half-maximal cytotoxicity (CC50 at 24 h) was put at 316 µM. Besides, the EC50 in data set [2] worked out at 224 µM; in data set [3] (setting [6]) it was 217 µM; in data set [4], 220 µM; in data set [5], 252 µM. Moreover, in data set [3], the “Selectivity Index” value stood at 1.46.

As for `C#CCCCCC(=O)N[C@H](C(=O)N[C@H](C(=O)N[C@H](C(=O)N[C@@H](C)C(=O)N[C@@H](Cc1ccccc1)C(=O)NCCCCCCN)C(C)C)C(C)C)C(C)C` [peptide 16, HCC(CH2)4CO-Val-Val-Val-Ala-Phe-NH(CH2)6NH2] (Hept6ynoyl-VVVAF-{NH(CH2)6NH2}), the CC50 at 24 h in data set [1] worked out at 446 µM. Also, the EC50 in data set [2] stood at 18.1 µM; in data set [3] (setting [6]), 23.4 µM; in data set [4], 30.3 µM; in data set [5], 20.8 µM. Moreover, in data set [3], the “Selectivity Index” value was 19.2 and 19.0.

In the case of `C#CCCCCC(=O)N(C)[C@H](C(=O)N(C)[C@H]1CCN([C@H](C(=O)N(C)[C@@H](C)C(=O)N(C)[C@@H](Cc2ccccc2)C(=O)NCCCCCCN)C(C)C)C1=O)C(C)C` [peptide 34, HCC(CH2)4CO-Val(Me)-Agl(Me)-Val-Ala(Me)-Phe(Me)-NH(CH2)6NH2], the CC50 at 24 h in data set [1] turned out to be 398 µM. Further, the 50% effective concentration (EC50) in data set [2] turned out to be 23.1 µM; in data set [3] (setting [6]), 33.2 µM; in data set [5] it was 24.8 µM. Moreover, in data set [3], the “Selectivity Index” value came out at 12.0.
